Test results reported in ChEMBL document CHEMBL1157482, “Insight from molecular modeling into different conformation and SAR of natural steroids and unnatural 7-oxa-steroids” (Bioorg Med Chem Lett, 2008).
Each block holds one molecule with its values, some of them ahead of it.

Columns and labels:
[1] = Cmax in rat at 10 mg/kg, po; format: ADME, organism-based; set-up: dose 10 mg/kg, route oral; conditions: in vivo
[2] = Mean retention time in rat at 10 mg/kg, po; format: ADME, organism-based; set-up: dose 10 mg/kg, route oral; conditions: in vivo
[3] = Half life in rat at 10 mg/kg, po; format: ADME, organism-based; set-up: dose 10 mg/kg, route oral; conditions: in vivo
[4] = Tmax in rat at 10 mg/kg, po; format: ADME, organism-based; set-up: dose 10 mg/kg, route oral; conditions: in vivo
Rattus norvegicus [5] = assay: AUC (0 to infinity) in rat at 10 mg/kg, po; format: ADME, organism-based, Plasma; set-up: dose 10 mg/kg, route oral, time infinity; conditions: in vivo
Rattus norvegicus [6] = assay: AUC (last) in rat at 10 mg/kg, po; format: ADME, organism-based, Plasma; set-up: time 0 - last, dose 10 mg/kg, route oral; conditions: in vivo
Rattus norvegicus [7] = assay: AUC (last) in rat at 30 mg/kg, po; format: ADME, organism-based, Plasma; set-up: time 0 - last, dose 30 mg/kg, route oral; conditions: in vivo
Rattus norvegicus [8] = assay: Antiprogestin activity against ovariectomized po dosed Sprague-Dawley rat assessed as effect on ethinyl estradiol-induced C3 expression; format: functional; conditions: read-out: ID50 (the source's name)
Rattus norvegicus [9] = assay: AUC (0 to infinity) in rat at 30 mg/kg, po; format: ADME, organism-based, Plasma; set-up: time infinity, dose 30 mg/kg, route oral; conditions: in vivo
Rattus norvegicus [10] = assay: Antiprogestin activity against ovariectomized Sprague-Dawley rat assessed as effect on ethinyl estradiol-induced C3 expression at 10 mg/kg, po; format: functional
[11] = Tmax in rat at 30 mg/kg, po; format: ADME, organism-based; set-up: dose 30 mg/kg, route oral; conditions: in vivo
[12] = Cmax in rat at 30 mg/kg, po; format: ADME, organism-based; set-up: dose 30 mg/kg, route oral; conditions: in vivo
[13] = Mean retention time in rat at 30 mg/kg, po; format: ADME, organism-based; set-up: dose 30 mg/kg, route oral; conditions: in vivo
[14] = Half life in rat at 30 mg/kg, po; format: ADME, organism-based; set-up: dose 30 mg/kg, route oral; conditions: in vivo

Cmax [1]: 48.7 ng/mL
MRT [2]: 9.4 h
half-life [3]: 6.88 h
Tmax [4]: 3 h
AUC (Rattus norvegicus [5]): 505 ng·h/mL
AUC (Rattus norvegicus [6]): 460 ng·h/mL
Structure (SMILES): CN(C)c1ccc([C@H]2C[C@@]3(C)[C@@H](CC[C@@]3(O)C#Cc3ccc(F)cc3)[C@@H]3OCC4=CC(=O)CCC4=C32)cc1

AUC (Rattus norvegicus [7]): 446 ng·h/mL
AUC (Rattus norvegicus [9]): 3570 ng·h/mL
Tmax [11]: 12.5 h
Cmax [12]: 53.8 ng/mL
MRT [13]: 8 h
half-life [14]: 5.56 h
Structure (SMILES): CC#C[C@]1(O)CC[C@H]2[C@@H]3CCC4=CC(=O)CCC4=C3[C@@H](c3ccc(N(C)C)cc3)C[C@@]21C [MIFEPRISTONE]
ED50 (Rattus norvegicus [8]): 2.1 mg/kg
Efficacy (Rattus norvegicus [10]): 130%

Structure (SMILES): CC#C[C@]1(O)CC[C@H]2[C@@H]3OCC4=CC(=O)CCC4=C3[C@@H](c3ccc(N(C)C)cc3)C[C@@]21C
ED50 (Rattus norvegicus [8]): 2.4 mg/kg
Efficacy (Rattus norvegicus [10]): 110%

Structure (SMILES): CN(C)c1ccc([C@H]2C[C@@]3(C)[C@@H](CC[C@@]3(O)C#Cc3ccccc3)[C@@H]3OCC4=CC(=O)CCC4=C32)cc1
ED50 (Rattus norvegicus [8]): 2.5 mg/kg
Efficacy (Rattus norvegicus [10]): 100%
